The results in this text go back to patent US7199131B2, “Sulfonamide and sulfamide substituted imidazoquinolines” (3M Innovative Properties Company, priority 2001, dated 2007).

In series [1] the test system is tumor necrosis factor (α). In words: Cytokine Induction in Human Cells: tumor necrosis factor (α) secreted by PBMCs, ELISA. In kind it is cell-based. To be noted: incubated 18 to 24 hours, lowest concentration found to induce tumor necrosis factor. The source says:
(§1) An in vitro human blood cell system was used to assess cytokine induction by compounds of the invention. Activity is based on the measurement of interferon and tumor necrosis factor (α) (IFN and TNF, respectively) secreted into culture media as described by Testerman et. al. In “Cytokine Induction by the Immunomodulators Imiquimod and S-27609”, Journal of Leukocyte Biology, 58, 365–372 (September, 1995).
(§2) Whole blood is collected by venipuncture into EDTA vacutainer tubes from healthy human donors. Peripheral blood mononuclear cells (PBMCs) are separated from whole blood by density gradient centrifugation using Histopaque®-1077 (Sigma Chemicals, St. Louis, Mo.). The PBMCs are suspended at 3–4×10^6 cells/mL in RPMI 1640 medium containing 10% fetal bovine serum, 2 mM L-glutamine and 1% penicillin/streptomycin solution (RPMI complete). The PBMC suspension is added to 48 well flat bottom sterile tissue culture plates (Costar, Cambridge, Mass. or Becton Dickinson Labware, Lincoln Park, N.J.) containing an equal volume of RPMI complete media containing test compound.
(§3) The compounds are solubilized in dimethyl sulfoxide (DMSO). The DMSO concentration should not exceed a final concentration of 1% for addition to the culture wells.
(§4) The solution of test compound is added at 60 μM to the first well containing RPMI complete and serial (three fold or ten fold) dilutions are made. The PBMC suspension is then added to the wells in an equal volume, bringing the test compound concentrations to the desired range. The final concentration of PBMC suspension is 1.5–2×10^6 cells/mL. The plates are covered with sterile plastic lids, mixed gently and then incubated for 18 to 24 hours at 37° C. in a 5% carbon dioxide atmosphere.
(§5) Following incubation the plates are centrifuged for 5–10 minutes at 1000 rpm (˜200×g) at 4° C. The cell culture supernatant is removed with a sterile polypropylene pipette and transferred to sterile polypropylene tubes. Samples are maintained at −30 to −70° C. until analysis. The samples are analyzed for interferon (α) and tumor necrosis factor (α) by ELISA
Tumor necrosis factor (α) (TNF) concentration is determined using ELISA kits available from Genzyme, Cambridge, Mass.; R&D Systems, Minneapolis, Minn.; or Pharmingen, San Diego, Calif.
(§6) The table below lists the lowest concentration found to induce interferon and the lowest concentration found to induce tumor necrosis factor for each compound.
In general terms: ELISA stands for enzyme-linked immunosorbent assay.

In another series the test system is interferon (α). Kind of series: Cytokine Induction in Human Cells: interferon (α) secreted by PBMCs, ELISA. Format: cell-based. Particulars: incubated 18 to 24 hours, lowest concentration found to induce interferon.
Excerpt: as §1, §2, §3, §4, §5
Interferon (α) concentration is determined by ELISA using a Human Multi-Species kit from PBL Biomedical Laboratories, New Brunswick, N.J.
as §6

By melting point is commonly meant the temperature of the solid-liquid transition. Broadly, the minimal effective concentration is the smallest amount tested that counted as effective.

Where a name gives a salt, the structure may show the parent alone.

On to `CCCCc1nc2c(N)nc3ccccc3c2n1CCCCNS(=O)(=O)c1cccc(N)c1` (as salt: hydrochloride), for which the melting point was 110.2 °C (dec.).
`CCCCc1nc2c(N)nc3ccccc3c2n1CCCCNS(=O)(=O)c1cccc([N+](=O)[O-])c1` (as salt: hydrochloride) [Example 7, N^1-[4-(4-Amino-2-butyl-1H-imidazo[4,5-c]quinolin-1-yl)butyl]-3-nitro-1-benzenesulfonamide Hydrochloride] gave a melting point of 176 to 178.2 °C.
The same measure, in the same setting: for `CCCCc1nc2c(N)nc3ccccc3c2n1CCCCNS(=O)(=O)c1ccc([N+](=O)[O-])cc1` (as salt: hydrochloride) [Example 9, N^1-[4-(4-Amino-2-butyl-1H-imidazo[4,5-c]quinolin-1-yl)butyl]-4-nitro-1-benzenesulfonamide Hydrochloride] the value was 96 °C (dec.); for `CCCCc1nc2c(N)nc3ccccc3c2n1CCCCNS(=O)(=O)c1ccc(N)cc1` (as salt: hydrochloride) [Example 10, N^1-[4-(4-Amino-2-butyl-1H-imidazo[4,5-c]quinolin-1-yl)butyl]-4-amino-1-benzenesulfonamide Hydrochloride], 203.1 to 205 °C; for `Cc1nc2c(N)nc3c(c2n1CCCCNS(C)(=O)=O)CCCC3` (as salt: hydrochloride) [Example 263, N-[4-(4-amino-2-methyl-6,7,8,9-tetrahydro-1H-imidazo[4,5-c]quinolin-1-yl)butyl]methanesulfonamide hydrochloride], above 250 °C.
Still for that read-out and setting: with `CCCCc1nc2c(N)nc3ccccc3c2n1CCCCNS(=O)(=O)c1cccc2c(N(C)C)cccc12` [Example 1, N^1-[4-(4-Amino-2-butyl-1H-imidazo[4,5-c]quinolin-1-yl)butyl]-5-(dimethylamino)-1-naphthalenesulfonamide] the figure was 223 to 224 °C; with `CCCCc1nc2c(N)nc3ccccc3c2n1CCCCNS(=O)(=O)c1cccs1` [Example 3, N^2-[4-(4-Amino-2-butyl-1H-imidazo[4,5-c]quinolin-1-yl)butyl]-2-thiophenesulfonamide], 137.5 to 141.5 °C.
Same read-out and setting: with `CCCCc1nc2c(N)nc3ccccc3c2n1CCCCNS(=O)(=O)Cc1ccccc1` [Example 4, N-[4-(4-Amino-2-butyl-1H-imidazo[4,5-c]quinolin-1-yl)butyl]phenylmethanesulfonamide] the figure was 197 to 199.5 °C; with `CCCCc1nc2c(N)nc3ccccc3c2n1CCCCNS(=O)(=O)c1ccccc1` [Example 5, N^1-[4-(4-Amino-2-butyl-1H-imidazo[4,5-c]quinolin-1-yl)butyl]-1-benzenesulfonamide], 75.5 to 79 °C.
Regarding `CCCCc1nc2c(N)nc3ccccc3c2n1CCCCNS(=O)(=O)c1cccc([N+](=O)[O-])c1` [Example 7, N^1-[4-(4-Amino-2-butyl-1H-imidazo[4,5-c]quinolin-1-yl)butyl]-3-nitro-1-benzenesulfonamide Hydrochloride], the “Lowest Effective Concentration (μM) Tumor Necrosis Factor” value (“Lowest Effective Concentration” below) in series [1] (Hydrochloride) was “** (no induction was seen at any of the tested concentrations (0.12, 0.37, 1.11, 3.33, 10 and 30 μM))”. The compound further had a minimal effective concentration in the series with interferon (α) (Hydrochloride) of 0.01 µM.
For `CCCCc1nc2c(N)nc3ccccc3c2n1CCCCNS(=O)(=O)c1ccc([N+](=O)[O-])cc1` [Example 9, N^1-[4-(4-Amino-2-butyl-1H-imidazo[4,5-c]quinolin-1-yl)butyl]-4-nitro-1-benzenesulfonamide Hydrochloride], the “Lowest Effective Concentration” value in series [1] (Hydrochloride) was “** (no induction was seen at any of the tested concentrations (0.12, 0.37, 1.11, 3.33, 10 and 30 μM))”. The same compound displayed a minimal effective concentration in the series on interferon (α) (Hydrochloride) of 0.04 µM.
Regarding `CCCCc1nc2c(N)nc3ccccc3c2n1CCCCNS(=O)(=O)c1cccc2cnccc12` [Example 11, N^5-[4-(4-Amino-2-butyl-1H-imidazo[4,5-c]quinolin-1-yl)butyl]-5-isoquinolinesulfonamide], the melting point is 96 °C (dec.).
The same measure, in the same setting: for `COc1ccc(Cc2nc3c(N)nc4ccccc4c3n2CCCCNS(C)(=O)=O)cc1` [Example 12, N-[4-(4-Amino-2-(4-methoxybenzyl)-1H-imidazo[4,5-c]quinolin-1-yl]butyl]methanesulfonamide] the value was 78.1 to 79.5 °C; for `COCCc1nc2c(N)nc3c(c2n1CCCCNS(=O)(=O)c1ccc(F)cc1)CCCC3` [Example 14, N^1-{4-[4-Amino-2-(2-methoxyethyl)-6,7,8,9-tetrahydro-1H-imidazo[4,5-c]quinolin-1-yl]butyl}-4-fluoro-1-benzenesulfonamide], 191 to 193 °C.
The same measure, in the same setting: for `Nc1nc2ccccc2c2c1nc(-c1ccccc1)n2CCCCNS(=O)(=O)c1ccc(F)cc1` [Example 15, N-[4-(4-Amino-2-phenyl-1H-imidazo[4,5-c]quinolin-1-yl)butyl]-4-fluoro-1-benzenesulfonamide] the value was 214 to 216 °C; for `CS(=O)(=O)NCCCCn1c(-c2ccccc2)nc2c(N)nc3ccccc3c21` [Example 16, N-[4-(4-Amino-2-phenyl-1H-imidazo[4,5-c]quinolin-1-yl)butyl]methanesulfonamide], 234 to 235 °C.
Regarding `CCCCc1nc2c(N)nc3ccccc3c2n1CCNS(C)(=O)=O` [Example 34, N-[2-(4-Amino-2-butyl-1H-imidazo[4,5-c]quinolin-1-yl)ethyl]methanesulfonamide Trifluoroacetate], the minimal effective concentration in series [1] is given as 0.37 µM; in the series with interferon (α) it was 0.04 µM.
For `CCCCc1nc2c(N)nc3ccccc3c2n1CCNS(=O)(=O)C(F)(F)F` [Example 35, N-[2-(4-Amino-2-butyl-1H-imidazo[4,5-c]quinolin-1-yl)ethyl]trifluoromethanesulfonamide Trifluoroacetate] the same measures were 10 µM and 1.11 µM.
Take `CS(=O)(=O)NCCCCn1cnc2c(N)nc3c(c21)CCCC3` [Example 72, N-[4-(4-Amino-6,7,8,9-tetrahydro-1H-imidazo[4,5-c]quinolin-1-yl)butyl]methanesulfonamide Trifluoroacetate]: the “Lowest Effective Concentration” value in series [1] is “** (no induction was seen at any of the tested concentrations (0.12, 0.37, 1.11, 3.33, 10 and 30 μM))”. In the series with interferon (α), this compound had a minimal effective concentration of 3.33 µM.
Consider `CCCCc1nc2c(N)nc3ccccc3c2n1CCCCNS(=O)(=O)C[C@@]12CC[C@@H](CC1=O)C2(C)C` [Example 89], for which the minimal effective concentration stood at 1 µM in series [1] (PBMC) and 0.001 µM in the series with interferon (α) (PBMC).
Compound `COCCc1nc2c(N)nc3ccccc3c2n1CCCCN1CCCS1(=O)=O` [Example 266, 1-[4-(1,1-dioxidoisothiazolidin-2-yl)butyl]-2-(2-methoxyethyl)-1H-imidazo[4,5-c]quinolin-4-amine] had a melting point of 156.4 to 157.7 °C.
On the same count and under the same terms, for `CCS(=O)(=O)NCCCCn1c(C)nc2c(N)nc3ccccc3c21` [Example 269, N-[4-(4-amino-2-methyl-1H-imidazo[4,5-c]quinolin-1-yl)butyl]ethanesulfonamide] the value was 210.7 to 211.6 °C; for `CS(=O)(=O)NCCCCn1c(CC2CC2)nc2c(N)nc3ccccc3c21` [Example 270, N-{4-[4-amino-2-(cyclopropylmethyl)-1H-imidazo[4,5-c]quinolin-1-yl]butyl}methanesulfonamide], 199.7 to 200.7 °C.
